According to PMC8279981, “A first-in-human, phase 1 study of the NEDD8 activating enzyme E1 inhibitor TAS4464 in patients with advanced solid tumors” (Investigational New Drugs, 2021):

What was measured:
[1] = Plasma pharmacokinetics of TAS4464 in patients; format: in vivo, human
Experimental: The PK endpoints included maximum plasma concentration (Cmax), area under the concentration–time curve from time zero up to the last observable concentration (AUC0-last) and plasma accumulation of TAS4464 after multiple doses. PK parameters were evaluated on Day 1 of Cycle 1 and Day 15 of Cycle 1 in the weekly dosing cohort, as well as on Day 1 of the lead-in period and Day 1 of Cycle 1 in the weekly with lead-in dosing cohort. The evaluation of the relationship between solute carrier organic anion transporter family member 1B1 (SLCO1B1) genetic polymorphisms and PK (i.e., the mean and individual clearance [CL] and volume of distribution at steady-state [Vdss] by each OATP1B1 phenotype) was assessed as the PGx analysis endpoint.
The analysis populations included in the study are summarized in the Supplementary Appendix. DLTs were recorded by incidence and 95% confidence intervals (CI). Median PFS and 95% CIs were calculated using Kaplan–Meier methodology. Best overall response was tabulated, and the ORR and DCR with 95% CIs were calculated by dose level. PK parameters were evaluated using non-compartmental methods. For the pharmacodynamic parameter of cullin-NEDD8 in PBMC, summary statistics and a scatter plot of the percentage change from baseline were produced. Missing data were not imputed. […] SAS software v9.4 (SAS Institute Inc., Cary NC, USA) was used for all statistical processing.

[2] = tested on: hematologic and solid tumor xenograft models; settings: cited from earlier work
tumor cell lines = settings: cited from earlier work
[3] = plasma, multiple doses, data not shown

What does the source list for `CCOc1cccc(F)c1C#Cc1cn([C@@H]2O[C@H](CNS(N)(=O)=O)[C@@H](O)[C@H]2O)c2ncnc(N)c12` [TAS4464]?
dose dependence of Cmax and AUC ([1]; dose range of 10–56 mg/m^2): generally increased with increasing dose; accumulation ratio of AUC0-last [R (AUC0-last)] [1, 3]: ~1.0; accumulation ratio of Cmax [R (Cmax)] [1, 3]: ~1.0; antitumor effects ([2]; several hematologic and solid tumor xenograft models): promising antitumor effects; weight loss ([2]; xenograft models): without notable weight loss; inhibitory effects in cells (tumor cell lines; compared with MLN4924): greater inhibitory effects than MLN4924; time course of antiproliferative effects (tumor cell lines; dose- and time-dependent increase): plateauing after 24 h
